Experiments:
[1] = molecular target: human Somatostatin 4 receptor (SSTR4) (Homo sapiens (Human), UniProt P31391); experiment: cAMP assay with human somatostatin 4 receptor (hSSTR4 expressing H4 cells); assay type: cell-based; conditions: cAMP assay, read-out: SSTR4 agonism EC50
Description: Camp Assay Method Description for cAMP Assay with Human Somatostatin 4 Receptor
The activation of the SSTR4 receptor (Gi coupled) causes an inhibition of intracellular cAMP after stimulation with Forskolin, which can be quantifiable by use of a suitable assay Kit and an adequate plate reader. This technique is used to characterize pharmacological effects of the SSTR4 receptor agonists by use of hSSTR4 expressing H4 cells.
Compounds are dissolved and diluted in DMSO. The final test solution contains 1% DMSO. […] Cells are centrifuged and suspended in assay buffer (incl. 1:100 diluted Alexa antibody).
For the assay 5 μl of a cell suspension (approximately 5000 cells/well)—incl. Alexa antibody (diluted 1:100) are added into a 384 well MTP microtitre plate excepting one row or column (depending on the plate layout), which is reserved for the standard curve. Then 2 μl of compound sample is added as concentration response curve (e.g. 1e-5 M to 6e-10 M), usually in triplicates. Each assay contains incubations with vehicle controls instead of compound as controls for non-inhibited cAMP generation (100% CTL; ‘high values’) and incubations with 1 μM Somatosatin as controls for full inhibition and background (0% CTL; […]). […] Then the plates are shaken briefly and incubated for 60 min at room temperature. After 60 min 10 μl of the detection mix is added into all wells followed by an additional incubation period of 1 h. The plates are read in a suitable plate reader.
From this ratio, cAMP concentrations are calculated from standard curve and the EC50 is estimated by least square curve fit program.
The EC50 values were obtained with the aid of the above described cAMP ASSAY.

[2] = Metabolic stability in pooled human liver microsomes (half-life); assay type: in vitro ADME; conditions: 1 μM test compound; for half-life at 1 μM: pooled human liver microsomes, pH 7.6, 37° C., read-out: Half-life t1/2; for Half-life t1/2: 37° C.
Description: The metabolic stability of the compounds according to the invention may be investigated as follows:
The metabolic degradation of the test compound is assayed at 37° C. with pooled human liver microsomes. The final incubation volume of 100 μl per time point contains TRIS buffer pH 7.6 at room temperature (0.1 M), magnesium chloride (5 mM), microsomal protein (1 mg/mL) and the test compound at a final concentration of 1 μM. Following a short preincubation period at 37° C., the reactions are initiated by addition of beta-nicotinamide adenine dinucleotide phosphate, reduced form (NADPH, 1 mM), and terminated by transferring an aliquot into solvent after different time points. After centrifugation (10000 g, 5 min), an aliquot of the supernatant is assayed by LC-MS/MS for the amount of parent compound. The half-life is determined by the slope of the semi-logarithmic plot of the concentration-time profile.

Chain of human Somatostatin 4 receptor (SSTR4) (P31391 whole entry): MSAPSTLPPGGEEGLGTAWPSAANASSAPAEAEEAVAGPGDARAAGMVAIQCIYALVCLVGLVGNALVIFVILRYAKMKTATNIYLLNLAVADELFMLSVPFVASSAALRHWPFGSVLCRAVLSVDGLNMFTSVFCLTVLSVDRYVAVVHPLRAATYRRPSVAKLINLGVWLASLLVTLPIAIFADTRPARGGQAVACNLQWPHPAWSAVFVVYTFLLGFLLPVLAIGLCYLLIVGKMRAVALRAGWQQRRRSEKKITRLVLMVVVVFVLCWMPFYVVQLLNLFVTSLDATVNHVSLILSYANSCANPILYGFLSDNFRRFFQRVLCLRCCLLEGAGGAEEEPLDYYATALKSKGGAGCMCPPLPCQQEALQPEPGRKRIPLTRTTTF

CC(NC(=O)[C@H]1[C@@H]2CNC[C@@H]21)c1nn(C)c2ccccc12 (single isomer, unassigned) [Example 113]
EC50 [1]: 19.2 nM
half-life at 1 μM [2]: > 2.17 h

CC(NC(=O)[C@H]1[C@@H]2CNC[C@@H]21)c1nn(C)c2c(Cl)cccc12 (single isomer, unassigned) [Example 116]
EC50 [1]: 2.1 nM
half-life at 1 μM [2]: > 2.17 h

Cc1cccc2c(C(C)NC(=O)[C@H]3[C@@H]4CNC[C@@H]43)nn(C)c12 (single isomer, unassigned) [Example 119]
EC50 [1]: 3.2 nM
half-life at 1 μM [2]: > 2.17 h

O=C(NC1(Cc2ccccc2C(F)(F)F)CC1)[C@H]1[C@@H]2CNC[C@@H]21 [Example 2]
EC50 [1]: 56.5 nM
half-life at 1 μM [2]: > 2.17 h

CC(C)(NC(=O)[C@H]1[C@@H]2CNC[C@@H]21)c1ccc(Cl)c(Cl)c1.Cl [Example 8]
EC50 [1]: 2.8 nM
half-life at 1 μM [2]: > 2.17 h

C[C@H](NC(=O)[C@H]1[C@@H]2CNC[C@@H]21)c1cccc2ccccc12 [Example 10]
EC50 [1]: 10.7 nM
half-life at 1 μM [2]: > 2.17 h

CC(C)(COc1ccccc1C(F)(F)F)NC(=O)[C@H]1[C@@H]2CNC[C@@H]21.Cl [Example 12]
EC50 [1]: 0.6 nM
half-life at 1 μM [2]: > 2.17 h

Cc1cc(F)ccc1OCC(C)(C)NC(=O)[C@H]1[C@@H]2CNC[C@@H]21.Cl [Example 13]
EC50 [1]: 2.4 nM
half-life at 1 μM [2]: > 2.17 h

Cc1cc(Cl)ccc1OCC(C)(C)NC(=O)[C@H]1[C@@H]2CNC[C@@H]21.Cl [Example 15]
EC50 [1]: 7.8 nM
half-life at 1 μM [2]: > 2.17 h

Cc1cc(C#N)ccc1OCC(C)(C)NC(=O)[C@H]1[C@@H]2CNC[C@@H]21.Cl [Example 17]
EC50 [1]: 1 nM
half-life at 1 μM [2]: > 2.17 h

CC(C)(COc1cccnc1C(F)(F)F)NC(=O)[C@H]1[C@@H]2CNC[C@@H]21.Cl [Example 18]
EC50 [1]: 20.4 nM
half-life at 1 μM [2]: > 2.17 h

CC(C)(NC(=O)[C@H]1[C@@H]2CNC[C@@H]21)c1cnc2ccccn12.Cl [Example 20]
EC50 [1]: 8.5 nM
half-life at 1 μM [2]: > 2.17 h

CC(C)(NC(=O)[C@H]1[C@@H]2CNC[C@@H]21)c1ncccc1C(F)(F)F.Cl [Example 23]
EC50 [1]: 17.5 nM
half-life at 1 μM [2]: > 2.17 h

CC(C)(NC(=O)[C@H]1[C@@H]2CNC[C@@H]21)C1CCc2ccccc2O1.Cl (some centres unmarked) [Example 28]
EC50 [1]: 11.3 nM
half-life at 1 μM [2]: > 2.17 h

CC(C)(NC(=O)[C@H]1[C@@H]2CNC[C@@H]21)c1nc(C(F)(F)F)c2ccccn12.Cl [Example 31]
EC50 [1]: 1.9 nM
half-life at 1 μM [2]: > 2.17 h

Cn1nc(C(C)(C)NC(=O)[C@H]2[C@@H]3CNC[C@@H]32)c2cccnc21 [Example 32]
EC50 [1]: 9.9 nM
half-life at 1 μM [2]: > 2.17 h

Cc1cc(C(C)(C)NC(=O)[C@H]2[C@@H]3CNC[C@@H]32)c2ccccc2n1 [Example 33]
EC50 [1]: 4.6 nM
half-life at 1 μM [2]: > 2.17 h

Cc1ccncc1OCC(C)(C)NC(=O)[C@H]1[C@@H]2CNC[C@@H]21 [Example 38]
EC50 [1]: 27.8 nM
half-life at 1 μM [2]: > 2.17 h

CCc1ccccc1OCC(C)(C)NC(=O)[C@H]1[C@@H]2CNC[C@@H]21.Cl [Example 39]
EC50 [1]: 3 nM
half-life at 1 μM [2]: > 2.17 h

CC(C)(COc1ccccc1Cl)NC(=O)[C@H]1[C@@H]2CNC[C@@H]21.Cl [Example 42]
EC50 [1]: 14.7 nM
half-life at 1 μM [2]: > 2.17 h

Cc1cccc(OCC(C)(C)NC(=O)[C@H]2[C@@H]3CNC[C@@H]32)c1 [Example 43]
EC50 [1]: 185 nM
half-life at 1 μM [2]: > 2.17 h

Cc1ncccc1OCC(C)(C)NC(=O)[C@H]1[C@@H]2CNC[C@@H]21.Cl [Example 44]
EC50 [1]: 361 nM
half-life at 1 μM [2]: > 2.17 h

Cc1nc(C(C)(C)NC(=O)[C@H]2[C@@H]3CNC[C@@H]32)n2ccccc12 [Example 45]
EC50 [1]: 1.2 nM
half-life at 1 μM [2]: > 2.17 h

Cc1cc(F)cnc1OCC(C)(C)NC(=O)[C@H]1[C@@H]2CNC[C@@H]21 [Example 48]
EC50 [1]: 3.7 nM
half-life at 1 μM [2]: > 2.17 h

CC(C)(NC(=O)[C@H]1[C@@H]2CNC[C@@H]21)c1noc2ccccc12 [Example 51]
EC50 [1]: 7.4 nM
half-life at 1 μM [2]: > 2.17 h

CC(C)(COc1ncccc1C(F)(F)F)NC(=O)[C@H]1[C@@H]2CNC[C@@H]21 [Example 52]
EC50 [1]: 2.4 nM
half-life at 1 μM [2]: > 2.17 h

CC(C)(COc1cnc(Cl)c2ccccc12)NC(=O)[C@H]1[C@@H]2CNC[C@@H]21 [Example 53]
EC50 [1]: 9.8 nM
half-life at 1 μM [2]: 0.783 h

CC(C)(COc1cnccc1C1CC1)NC(=O)[C@H]1[C@@H]2CNC[C@@H]21 [Example 57]
EC50 [1]: 16.3 nM
half-life at 1 μM [2]: > 2.17 h

CC(C)(COc1nnccc1C(F)(F)F)NC(=O)[C@H]1[C@@H]2CNC[C@@H]21 [Example 58]
EC50 [1]: 22 nM
half-life at 1 μM [2]: > 2.17 h

Cc1ccccc1OCC(C)NC(=O)[C@H]1[C@@H]2CNC[C@@H]21.Cl (some centres unmarked) [Example 59]
EC50 [1]: 64.3 nM
half-life at 1 μM [2]: > 2.17 h

Cl.Cn1nccc1OCC(C)(C)NC(=O)[C@H]1[C@@H]2CNC[C@@H]21 [Example 60]
EC50 [1]: 76.9 nM
half-life at 1 μM [2]: > 2.17 h

CC(C)(COc1ncccc1C1CC1)NC(=O)[C@H]1[C@@H]2CNC[C@@H]21 [Example 64]
EC50 [1]: 2 nM
half-life at 1 μM [2]: > 2.17 h

Cc1cc(C2CC2)ccc1OCC(C)(C)NC(=O)[C@H]1[C@@H]2CNC[C@@H]21 [Example 65]
EC50 [1]: 29.8 nM
Half-life t1/2 [2]: >2.17 h

Cn1nc(C(C)(C)NC(=O)[C@H]2[C@@H]3CNC[C@@H]32)c2cccc(Cl)c21 [Example 106]
half-life at 1 μM [2]: > 2.17 h

Cc1cccc2c(C(C)(C)NC(=O)[C@H]3[C@@H]4CNC[C@@H]43)n(C)nc12 [Example 108]
half-life at 1 μM [2]: > 2.17 h

CC(C)(NC(=O)[C@H]1[C@@H]2CNC[C@@H]21)c1n[nH]c2c(C(F)(F)F)cccc12 [Example 110]
Half-life t1/2 [2]: >2.17 h

Cc1nc(C(C)NC(=O)[C@H]2[C@@H]3CNC[C@@H]32)c2cccc(C)c2n1 (some centres unmarked) [Example 162]
EC50 [1]: 128 nM

O=C(NC1(c2nc3ccc(Cl)cc3[nH]2)CCOC1)[C@H]1[C@@H]2CNC[C@@H]21 (some centres unmarked) [Example 169]
EC50 [1]: 313 nM

Cc1ccc(C(C)(C)NC(=O)[C@H]2[C@@H]3CNC[C@@H]32)c(C)n1 [Example 172]
EC50 [1]: 520 nM

CC(C)(NC(=O)[C@H]1[C@@H]2CNC[C@@H]21)C1COc2ccccc21 (some centres unmarked) [Example 173]
EC50 [1]: 237 nM

Cn1nc(C(C)(C)NC(=O)[C@H]2[C@@H]3CNC[C@@H]32)c2c1CCCC2 [Example 176]
EC50 [1]: 1.2 nM

Cc1cc(C)c(C(C)(C)NC(=O)[C@H]2[C@@H]3CNC[C@@H]32)cn1 [Example 177]
EC50 [1]: 9.1 nM

CC(C)(NC(=O)[C@H]1[C@@H]2CNC[C@@H]21)C1CCOc2ccccc21 (some centres unmarked) [Example 178]
EC50 [1]: 22.4 nM

CC(C)(NC(=O)[C@H]1[C@@H]2CNC[C@@H]21)c1ncc2n1CCCC2 [Example 181]
EC50 [1]: 41.3 nM

Cc1cccn2c(C3(NC(=O)[C@H]4[C@@H]5CNC[C@@H]54)CCOCC3)ncc12 [Example 182]
EC50 [1]: 68.5 nM

Cc1cccn2c(C(C)(NC(=O)[C@H]3[C@@H]4CNC[C@@H]43)C3CC3)ncc12 (some centres unmarked) [Example 183]
EC50 [1]: 9.9 nM

Cc1cccn2c(C(C)(C)NC(=O)[C@H]3[C@@H]4CNC[C@@H]43)ccc12 [Example 184]
EC50 [1]: 0.4 nM
